From US20240131352A1, “NON-INVASIVE CANCER TREATMENT” (SCIENTIA BIOTECH S.L, priority 2021, published 2024)
Where two headings read alike, the source gives them in different places. Marks after values point to notes of the source that are not given here.

How the values were obtained:
[1] = tested on: U87MG cells; conditions: 240 min + HT 42° C. 10 min; for effect on cell viability for U87MG cells: 20 μM compound minute 210 to 240 + TTF 300 kHz, about 8 μT; for effect on viable U87MG cells of TTF+HT+PT: 20 μM pterostilbene minute 120 to 240 + TTF 300 kHz, 8 μT
Experimental: The hyperthermia applied was 42° C. for 10 minutes (from minute 120 to minute 130). 20 μM of pterostilbene was applied for 120 minutes (from minute 120 to minute 240). […] The magnetic field was applied using a solenoid with approximately 100 μT magnetic flux density at the central axis of the solenoid. The solenoid was placed at a distance from the cell cultures such that the average field strength on the surface of the culture flasks where the cells were attached was 8 μT.
FIGS. 15B to 15F show microscopic images of in vitro U87MG cell cultures after exposed to different external treatments.
The data are means with standard deviation for four independent experiments. Data labelled * indicates a P value (student's t test) less than 0.01 compared to the control. Data labelled + indicates a P value (student's t test) less than 0.01 compared to the TTF-only data. Data labelled # indicates a P value (student's t test) less than 0.01 compared to the TTF+HT data.

[2] = tested on: AsPC1 (pancreatic adenocarcinoma, ATCC) cells; conditions: for effect on viable AsPC1 cells of TTF+HT+GEM+PT: 25 μM gemcitabine + 20 μM pterostilbene minute 0 to 240 + TTF 200 kHz, 1.5 μT + HT 52° C. 20 min, all four in combination
Experimental: For TTF data the TT-Field applied was at 200 kHz for 240 mins (from minute 0 to minute 240) for a field intensity of 1.5 μT. For HT data the hyperthermia applied was 52° C. for 20 minutes (from minute 120 to minute 140). For PT data 20 uM of pterostilbene was applied from minute 0 to minute 240.
For TTF data, the TT-Field applied was at 200 kHz for 240 mins (from minute 0 to minute 240) for a field intensity of 1.5 μT. For HT data the hyperthermia applied was 52° C. for 20 minutes (from minute 120 to minute 140). For GEM data 25 μM of gemcitabine was applied from minute 0 to minute 240. For PT data 20 μM of pterostilbene was applied from minute 0 to minute 240.
(§2) For rows including “TTF”, a TT-Field was applied at 200 kHz for 240 mins (from minute 0 to minute 240) for a field intensity of 1.5 μT. For rows including “HT”, hyperthermia applied was at 42 ° C. for U87MG and 52° C. for AsPC1 and A2058 for 20 minutes (from minute 120 to minute 140).

[3] = tested on: A2058 (melanoma, ATCC) cells
Experimental: For TTF data, the TT-Field applied was at 200 kHz for 240 mins (from minute 0 to minute 240) for a field intensity of 1.5 μT. For HT data the hyperthermia applied was 52° C. for 20 minutes (from minute 120 to minute 140). For PT data 20 μM of pterostilbene was applied from minute 0 to minute 240.
For TTF data, the TT-Field applied was at 200 kHz for 240 mins (from minute 0 to minute 240) for a field intensity of 1.5 μT. For HT data the hyperthermia applied was 52° C. for 20 minutes (from minute 120 to minute 140). For PAC data 10 μM of paclitaxel was applied from minute 0 to minute 240.
as §2

[4] = tested on: C6; assay: TTF+HT+PT therapy on glioblastoma line C6; format: cell-based; conditions: compared with U87MG
[5] = tested on: GL261; assay: TTF+HT+PT therapy on glioblastoma line GL261; format: cell-based; conditions: compared with U87MG
[6] = tested on: A549 (lung carcinoma); assay: heating + tumour treating fields + PT in vitro, A549; format: cell-based
Description: (§1) The effectiveness of therapy by heating in combination with tumour treating fields and exposure to PT is also observed in other cell lines in vitro, such as A2058 (melanoma), AsPC-1 (pancreas carcinoma), A549 (lung carcinoma), MCF-7 (mammary gland carcinoma), HT-29 (colorectal carcinoma), PC-3 (prostate carcinoma), SK-OV-3 (ovarian carcinoma and HepG2 (hepatocarcinoma).

[7] = tested on: MCF-7 (mammary gland carcinoma); assay: heating + tumour treating fields + PT in vitro, MCF-7; format: cell-based; conditions: MCF-7, in vitro
Description: as §1

[8] = tested on: HT-29 (colorectal carcinoma); assay: heating + tumour treating fields + PT in vitro, HT-29; format: cell-based; conditions: HT-29, in vitro
Description: as §1

[9] = tested on: PC-3 (prostate carcinoma); assay: heating + tumour treating fields + PT in vitro, PC-3; format: cell-based; conditions: PC-3, in vitro
Description: as §1

[10] = tested on: SK-OV-3 (ovarian carcinoma); assay: heating + tumour treating fields + PT in vitro, SK-OV-3; format: cell-based; conditions: SK-OV-3, in vitro
Description: as §1

[11] = tested on: HepG2 (hepatocarcinoma); assay: heating + tumour treating fields + PT in vitro, HepG2; format: cell-based
Description: as §1

[12] = tested on: GSH in U87 (GBM) cells; assay: GSH content of U87MG cells in vitro (GSH depletion); format: cell-based
Experimental: (§3) For rows including “TTF”, a TT-Field was applied at 200 kHz for 240 mins (from minute 0 to minute 240) for a field intensity of 1.5 μT. For rows including “HT”, hyperthermia applied was at 42 ° C. for U87MG and 52° C. for AsPC1 and A2058 for 20 minutes (from minute 120 to minute 140). For rows including “BSO”, 1 mM of buthione sulfoximine, a specific inhibitor of GSH synthesis, was added to the cell culture medium at the time the cells of the culture were seeded. When HT and TTF were applied in combination with BSO, the HT and TTF were applied 24 hours after seeding.

[13] = tested on: GSH in AsPC1 (Pancreatic adenocarcinoma) cells; assay: GSH content of AsPC1 cells in vitro (GSH depletion); format: cell-based
Experimental: as §3

[14] = tested on: GSH in A2058 (melanoma) cells; assay: GSH content of A2058 cells in vitro (GSH depletion); format: cell-based
Experimental: as §3

[15] = 1 mM BSO added at seeding, BSO alone, mean ± SD, five experiments
[16] = 1 mM BSO + TTF (200 kHz, 1.5 μT, 240 min) + HT (52° C., 20 min) applied 24 hours after seeding

Molecule: OC[C@H]1O[C@@H](Oc2cc(O)cc(/C=C/c3ccc(O)cc3)c2)[C@H](O)[C@@H](O)[C@@H]1O [G-diOH-s, 3-glucoside-5,4′-dihydroxystilbene]
- effect on cell viability for U87MG cells [1]: significant reduction in cell viability

Molecule: Nc1ccn([C@@H]2O[C@H](CO)[C@@H](O)C2(F)F)c(=O)n1 [GEM, gemcitabine]
- effect on viable AsPC1 cells of TTF+HT+GEM+PT [2]: eliminated the AsPC1 cells

Molecule: CC(=O)O[C@H]1C(=O)[C@@]2(C)[C@H]([C@H](OC(=O)c3ccccc3)[C@]3(O)C[C@H](OC(=O)[C@H](O)[C@@H](NC(=O)c4ccccc4)c4ccccc4)C(C)=C1C3(C)C)[C@]1(OC(C)=O)CO[C@@H]1C[C@@H]2O [PAC, (2α,4α,5β,7β,10β,13α)-4,10-Bis(acetyloxy)-13-{[(2R,3 S)-3(benzoylamino)-2-hydroxy-3-phenylpropanoyl]oxy}-1,7-dihydroxy-9-oxo-5,20-epoxytax-11-en-2-yl benzoate]
- effect on viable A2058 cells of TTF+HT+PAC ([3]; 10 μM paclitaxel minute 0 to 240 + TTF 200 kHz, 1.5 μT + HT 52° C. 20 min): eliminated the cells

Molecule: COc1cc(/C=C/c2ccc(O)cc2)cc(OC)c1 [pterostilbene, trans-3,5-dimethoxy-4′-hydroxystilbene]
- effect on viable U87MG cells of TTF+HT+PT [1]: effectively eliminates all cells in vitro
- effect on viable U87MG cells of TTF+HT+PT ([1]; listed as PT): completely eliminates all U87MG growing cells
- effectiveness of TTF+HT+PT therapy [4]: same effectiveness
- effectiveness of TTF+HT+PT therapy [5]: same effectiveness
- effectiveness of therapy by heating in combination with tumour treating fields and exposure to PT [6]: also observed
- effectiveness of therapy by heating in combination with tumour treating fields and exposure to PT [7]: also observed
- effectiveness of therapy by heating in combination with tumour treating fields and exposure to PT [8]: also observed
- effectiveness of therapy by heating in combination with tumour treating fields and exposure to PT [9]: also observed
- effectiveness of therapy by heating in combination with tumour treating fields and exposure to PT [10]: also observed
- effectiveness of therapy by heating in combination with tumour treating fields and exposure to PT [11]: also observed
- effect on viable AsPC1 cells of TTF+HT+GEM+PT [2]: eliminated the AsPC1 cells
- effectiveness of therapy by heating in combination with tumour treating fields and exposure to PT ([2]; AsPC-1 (pancreas carcinoma), in vitro): also observed
- effect on viability of A2058 cells of TTF+HT+PT ([3]; 20 μM pterostilbene minute 0 to 240 + TTF 200 kHz, 1.5 μT + HT 52° C. 20 min, compared to TTF+HT): significantly reduced the viability of the cells
- effectiveness of therapy by heating in combination with tumour treating fields and exposure to PT ([3]; A2058 (melanoma), in vitro): also observed

Molecule: Oc1ccc(C=Cc2cc(O)cc(O)c2)cc1 [resveratrol]
- effect on cell viability for U87MG cells [1]: do not eliminate all U87MG cell growing in vitro

Molecule: Buthionine sulfoximine [BSO]
- GSH ([12]; 1 mM BSO + TTF (200 kHz, 1.5 μT, 240 min) + HT (42 °C, 20 min) applied 24 hours after seeding): 1.92 ± 0.59*^+ nmol/10^6 cells
- GSH [12, 15]: 2.10 ± 0.70 nmol/10^6 cells
- GSH [13, 16]: 2.49 ± 0.66*^+ nmol/10^6 cells
- GSH [13, 15]: 3.14 ± 0.79 nmol/10^6 cells
- GSH [14, 16]: 2.06 ± 0.51*^+ nmol/10^6 cells
- GSH [14, 15]: 2.24 ± 0.82 nmol/10^6 cells
